In patent US20250222124A1, “PROTEIN CONJUGATES WITH MULTIPLE PAYLOADS AND METHODS FOR MAKING THE SAME” (GLYCO-THERAPY BIOTECHNOLOGY CO., LTD., priority 2022, published 2025):

Tested on: HpFT-2 (Helicobacter pylori α1,3 fucosyltrasferase)
Experiment: Conversion efficiency of α1,3 fucosyltrasferase towards GDP-fucose derivatives with different jointer on the antibodies (LC-MS)
Type: biochemical
Settings: substrate 1 mM, HpFT-2 0.5 mg/mL
Method: Trastuzumab-(GalNAzβ1,4)GlcNAc (2 mg/mL) was incubated with GDP-FAzP4Biotin (1 mM) or GDP-FAmP4Biotin (1 mM) and HpFT-2 (0.5 mg/mL) in 50 mM Tris-HCl buffer (pH 7.5) with 5 mM MgCl2 at 30° C. for 2 hours. […] The reaction mixtures were then quenched by adding LacNAc (final concentration 10 mM) and purified with protein A resin and analyzed by LC-MS respectively.

[1] = antibody Trastuzumab-(Fucα1,6)(Galβ1,4)GlcNAc 2 mg/mL, reaction time 10 min, average MAR/2*100%
[2] = antibody Trastuzumab-(GalNAzβ1,4)GlcNAc 2 mg/mL, reaction time 2 h, average MAR/2*100%
[3] = antibody Trastuzumab-(Galβ1,4)GlcNAc 2 mg/mL, reaction time 10 min, average MAR/2*100%

SMILES	% of conversion [1]	% of conversion [2]	% of conversion [3]	% of conversion (antibody Trastuzumab-G2F 2 mg/mL, reaction time 2 h, average MAR/4*100%)
Nc1nc2c(ncn2[C@@H]2O[C@H](COP(=O)(O)OP(=O)(O)O[C@H]3OC(CNC(=O)CCOCCOCCOCCOCCNC(=O)CCCC[C@@H]4SC[C@@H]5NC(=O)N[C@@H]54)[C@@H](O)C(O)C3O)C(O)C2O)c(=O)[nH]1 (stereo partly shown) [GDP-FAmP4Biotin]	42 ± 5.3%	77 ± 5.0%	83 ± 1.2%	
Nc1nc2c(ncn2[C@@H]2O[C@H](COP(=O)(O)OP(=O)(O)O[C@H]3OC(Cn4cc(COCCOCCOCCOCCNC(=O)CCCC[C@@H]5SC[C@@H]6NC(=O)N[C@@H]65)nn4)[C@@H](O)[C@H](O)C3O)C(O)[C@@H]2O)c(=O)[nH]1 (stereo partly shown) [GDP-FAzP4Biotin]	30 ± 4.6%	13 ± 4.7%	60 ± 0.6%	9 ± 1.2%
